As a reminder, the DC50 is the concentration at which degradation of the target reaches its halfway point.

Data on 26 compounds can be found in patent US20240173419A1, “CDK2 DEGRADERS AND USES THEREOF” (Kymera Therapeutics, Inc., priority 2022, published 2024).

For this assay, the target named is T1, CDK2 (Homo sapiens, UniProt P24941).
T1 construct: endogenous in cells; host or cells: MKN1 cells
The assay can be described thus: CDK2 degradation in MKN1 cells (AlphaLISA). Type of assay: cell-based. Conditions: 14 h incubation; for DC50: read-out: CDK2 degradation 14 h: Mean external-Abs DC50. In short, it runs like this:
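MKN1 cells (2e4/well) treated 14 h at 37° C with 11-point 1:5 dilutions (0.001 nM-10 μM, 0.1% DMSO). CDK2 in lysates quantified by AlphaLISA, no-cell background subtracted; DC50 from four-parameter logistic fit.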
In general terms: Bead proximity is the source of the signal in Alpha formats.

Molecules are shown by their SMILES.

Regarding `Cc1cc(S(=O)(=O)C2CC3(CCN(CCOC4CN(c5ccc6c(c5F)n(C)c(=O)n6C5CCC(=O)NC5=O)C4)CC3)C2)ccc1Nc1ncc(C(F)(F)F)c(N2CCCC(C)(O)C2)n1` (stereo not shown) [I-853], the “CDK2 degradation 14 h: Average Dmax %” value is listed as “B (B (>50% -75%))” and the 50% degradation concentration (DC50) is 100 to 500 nM.

In the case of `Cc1cc(S(=O)(=O)NCCC2CCN(c3ccc(N4CCC(=O)NC4=O)cc3)CC2)ccc1Nc1ncc2cc(Cl)c(=O)n(C3CCCC3)c2n1` [I-413], the “CDK2 degradation 14 h: Average Dmax %” value is “B (B (>50% -75%))” and the half-maximal degradation concentration (DC50) is > 1000 nM.

As to `Cc1cc(S(=O)(=O)[C@H]2CC[C@H](CN(C)C3CCN(c4cccc5c4n(C)c(=O)n5C4CCC(=O)NC4=O)CC3)CC2)ccc1Nc1ncc2c(n1)N(C1CCCC1)C(=O)C21CC1` (stereo partly shown) [I-53], the “CDK2 degradation 14 h: Average Dmax %” value is “A (A (>75% o))” and the DC50 was < 100 nM.

In the case of `Cc1cc(S(=O)(=O)NCCOCCOCCOCCOCCNc2cccc3c2C(=O)N(C2CCC(=O)NC2=O)C3=O)ccc1Nc1ncc2cc(C(F)F)c(=O)n(C3CCCC3(C)O)c2n1` (stereo not shown) [I-483], the “CDK2 degradation 14 h: Average Dmax %” value is “A (A (>75% o))” and the 50% degradation concentration (DC50) was < 100 nM.

As for `Cc1cc(S(=O)(=O)N2CCC(CN(C)C3CCN(c4cccc5c4n(C)c(=O)n5C4CCC(=O)NC4=O)CC3)CC2)ccc1Nc1ncc2cc(C(F)F)c(=O)n(C3CCCC3)c2n1` (stereo not shown) [I-438], the “CDK2 degradation 14 h: Average Dmax %” value is given as “A (A (>75% o))” and the DC50 is < 100 nM.

Regarding `Cc1cc(S(=O)(=O)NC2CCN(CC3CCN(c4c(F)ccc5c4n(C)c(=O)n5C4CCC(=O)NC4=O)CC3)CC2F)ccc1Nc1ncc2c(n1)N(C1CCCC(O)C1)C(=O)C21CC1` (stereo not shown) [I-949], the “CDK2 degradation 14 h: Average Dmax %” value is “A (A (>75% o))” and the 50% degradation concentration (DC50) was < 100 nM.

Turning to `Cc1cc(S(=O)(=O)NCCOCCOCCCc2ccc3c(c2)n(C)c(=O)n3C2CCC(=O)NC2=O)ccc1Nc1ncc2c(C)cc(=O)n(C3CCCC3)c2n1` (stereo not shown) [I-466], the “CDK2 degradation 14 h: Average Dmax %” value is listed as “D (D (<25%))” and the DC50 is > 1000 nM.

`Cc1cc(S(=O)(=O)C2CCC(CN(C)C3CCN(c4cccc5c4n(C)c(=O)n5C4CCC(=O)NC4=O)CC3)CC2)ccc1Nc1ncc2cc(Cl)c(=O)n(C3CCCC34CC4)c2n1` (stereo not shown) [I-60]: the “CDK2 degradation 14 h: Average Dmax %” value is on record as “A (A (>75% o))” and the 50% degradation concentration (DC50) was < 100 nM.

`Cc1cc(S(=O)(=O)C2CCN(CCN3CCC(c4cccc5c4n(C)c(=O)n5C4CCC(=O)NC4=O)CC3)CC2)ccc1Nc1ncc2cc(Cl)c(=O)n(C(C)C)c2n1` (stereo not shown) [I-8]: the “CDK2 degradation 14 h: Average Dmax %” value is “B (B (>50% -75%))” and the DC50 was 100 to 500 nM.

Consider `Cc1cc(S(=O)(=O)C2CC3(CCN(CC4CCN(c5cccc6c5n(C)c(=O)n6C5CCC(=O)NC5=O)CC4)CC3)C2)ccc1Nc1ncc2cc(C(F)F)c(=O)n(C3CCCC3)c2n1` (stereo not shown) [I-86], for which the “CDK2 degradation 14 h: Average Dmax %” value is reported as “A (A (>75% o))” and the DC50 is < 100 nM.

Consider `Cc1cc(S(=O)(=O)NCCOC2CCC3(CC2)CCN(CCCc2ccc4c(c2)n(C)c(=O)n4C2CCC(=O)NC2=O)CC3)ccc1Nc1ncc2ccc(=O)n(C3CCCC3)c2n1` (stereo not shown) [I-470], for which the “CDK2 degradation 14 h: Average Dmax %” value is reported as “A (A (>75% o))” and the 50% degradation concentration (DC50) is < 100 nM.

With `Cc1cc(S(=O)(=O)C2CC3(CCN(CC4CCN(c5cccc6c5n(C)c(=O)n6C5CCC(=O)NC5=O)CC4)CC3)C2)ccc1Nc1ncc(C(F)(F)F)c(N2CCC(C(C)(C)O)C2)n1` (stereo not shown) [I-841], the “CDK2 degradation 14 h: Average Dmax %” value is reported as “A (A (>75% o))” and the 50% degradation concentration (DC50) is < 100 nM.

For the compound `Cn1c(=O)n(C2CCC(=O)NC2=O)c2ccc(N3CCC(CN4CCC(NS(=O)(=O)c5ccc(Nc6ncc(C(F)(F)F)c(N7CCCC(C)(O)C7)n6)c(F)c5)C(F)C4)CC3)cc21` (stereo not shown) [I-1039], the “CDK2 degradation 14 h: Average Dmax %” value is given as “A (A (>75% o))” and the DC50 is < 100 nM.

As to `Cc1cc(S(=O)(=O)NC2CCC(CN3CCN(c4cccc(NC5CCC(=O)NC5=O)c4)CC3)CC2)ccc1Nc1ncc(C(F)(F)F)c(N2CCCC(C)(O)C2)n1` (stereo not shown) [I-775], the “CDK2 degradation 14 h: Average Dmax %” value is “A (A (>75% o))” and the DC50 was < 100 nM.

As for `Cc1cc(S(=O)(=O)NC(C)COC2CCC(CN3CC(c4cccc5c4n(C)c(=O)n5C4CCC(=O)NC4=O)C3)CC2)ccc1Nc1ncc(C(F)(F)F)c(N2CCCC(C)(O)C2)n1` (stereo not shown) [I-850], the “CDK2 degradation 14 h: Average Dmax %” value is given as “B (B (>50% -75%))” and the half-maximal degradation concentration (DC50) is < 100 nM.

As to `Cc1cc(S(=O)(=O)C2CCN(CCN3CCN(c4cccc5c4n(C)c(=O)n5C4CCC(=O)NC4=O)CC3)CC2)ccc1Nc1ncc(C(F)(F)F)c(-c2cnn(C)c2)n1` (stereo not shown) [I-61], the “CDK2 degradation 14 h: Average Dmax %” value is recorded as “A (A (>75% o))” and the half-maximal degradation concentration (DC50) is < 100 nM.

Turning to `Cc1cc(S(=O)(=O)C2CC3(CCN(CC4CCN(c5ccc(NC6CCC(=O)NC6=O)c(Cl)c5)CC4)CC3)C2)ccc1Nc1ncc2cc(Cl)c(=O)n(C3CCCC3)c2n1` (stereo not shown) [I-329], the “CDK2 degradation 14 h: Average Dmax %” value is recorded as “A (A (>75% o))” and the half-maximal degradation concentration (DC50) is < 100 nM.

Turning to `Cc1cc(S(=O)(=O)N2CCC(CN(C)C3CCN(c4cccc5c4n(C)c(=O)n5C4CCC(=O)NC4=O)CC3)CC2)ccc1Nc1ncc2cc(C(F)(F)F)c(=O)n(C3CCCC3)c2n1` (stereo not shown) [I-341], the “CDK2 degradation 14 h: Average Dmax %” value is recorded as “A (A (>75% o))” and the DC50 is < 100 nM.

Take `Cc1cc(S(=O)(=O)NC2CC(N3CCCN(CC4CCN(c5cccc6c5n(C)c(=O)n6C5CCC(=O)NC5=O)CC4)CC3)C2)ccc1Nc1ncc(C(F)(F)F)c(N2CCCC(C)(O)C2)n1` (stereo not shown) [I-704]: the “CDK2 degradation 14 h: Average Dmax %” value is listed as “A (A (>75% o))” and the DC50 is < 100 nM.

With `Cc1cc(S(=O)(=O)NCCOCCOCCCc2cccc3c2n(C)c(=O)n3C2CCC(=O)NC2=O)ccc1Nc1ncc2cc(C(F)F)c(=O)n([C@@H]3CCC[C@]3(C)O)c2n1` (stereo partly shown) [I-487], the “CDK2 degradation 14 h: Average Dmax %” value is given as “A (A (>75% o))” and the DC50 was < 100 nM.

Take `Cc1cc(S(=O)(=O)NCCOC2CCC(CN3CCC(c4ccc5c(c4)n(C)c(=O)n5C4CCC(=O)NC4=O)CC3)CC2)ccc1Nc1ncc2ccc(=O)n(C3CCCC3)c2n1` (stereo not shown) [I-468]: the “CDK2 degradation 14 h: Average Dmax %” value is reported as “A (A (>75% o))” and the DC50 was < 100 nM.

For `Cc1cc(S(=O)(=O)NCCO[C@H]2CC[C@H](CN3CCC(c4ccc5c(c4)n(C)c(=O)n5C4CCC(=O)NC4=O)CC3)CC2)ccc1Nc1ncc2cc(C(F)F)c(=O)n(C3CCCC3)c2n1` (stereo partly shown) [I-441], the “CDK2 degradation 14 h: Average Dmax %” value is recorded as “A (A (>75% o))” and the DC50 was < 100 nM.

In the case of `Cc1cc(S(=O)(=O)NCCOC2CC3(C2)CN(Cc2ccc4c(c2)n(C)c(=O)n4C2CCC(=O)NC2=O)C3)ccc1Nc1ncc2ccc(=O)n(C3CCCC3)c2n1` (stereo not shown) [I-445], the “CDK2 degradation 14 h: Average Dmax %” value is “A (A (>75% o))” and the half-maximal degradation concentration (DC50) was < 100 nM.

For the compound `Cc1cc(S(=O)(=O)N2CCN(CCC3CCN(c4cccc5c4n(C)c(=O)n5C4CCC(=O)NC4=O)CC3)CC2)ccc1Nc1ncc2cc(Cl)c(=O)n(C(C)C)c2n1` (stereo not shown) [I-393], the “CDK2 degradation 14 h: Average Dmax %” value was “B (B (>50% -75%))” and the DC50 was 100 to 500 nM.

As to `Cc1cc(S(=O)(=O)NC2(C)CCC(CN3CCN(c4ccc(C5CCC(=O)NC5=O)cc4F)CC3)CC2)ccc1Nc1ncc(C(F)(F)F)c(N2CCC[C@](C)(O)C2)n1` (stereo partly shown) [I-803], the “CDK2 degradation 14 h: Average Dmax %” value is “A (A (>75% o))” and the DC50 was < 100 nM.

As for `Cc1cc(S(=O)(=O)NC(C)COC2CN(CC3CCN(c4ccc5c(c4F)n(C)c(=O)n5C4CCC(=O)NC4=O)CC3)C2)ccc1Nc1ncc(C(F)(F)F)c(C2CCC(C)(O)CC2)n1` (racemic) [I-852], the “CDK2 degradation 14 h: Average Dmax %” value was “B (B (>50% -75%))” and the DC50 is < 100 nM.
